Assay: -log concentration required to induce 50% maximum lipogenic activity against Peroxisome proliferator activated receptor gamma

In the case of CN(CCOc1ccc(CC(Nc2ccsc2C(=O)c2ccccc2)C(=O)O)cc1)c1nc2ccccc2o1 (stereo unspecified), the EC50 is reported as 3.5 nM.
CN(CCOc1ccc(CC(Nc2ccccc2C(=O)c2cccs2)C(=O)O)cc1)c1nc2ccccc2o1 (stereo unspecified) showed an EC50 of 78 nM.
CN(CCOc1ccc(CC(Nc2ccccc2C(=O)c2cccc(C(F)(F)F)c2)C(=O)O)cc1)c1nc2ccccc2o1 (stereo unspecified) showed an EC50 of 27 nM.
Compound Cc1oc(-c2ccccc2)nc1CCOc1ccc(CC(Nc2ccccc2C(=O)c2ccc(CO)cc2)C(=O)O)cc1 (stereo unspecified) has an EC50 of 174 nM.
Work on CCOC(=O)c1ccccc1NC(Cc1ccc(OCCc2nc(-c3ccccc3)oc2C)cc1)C(=O)O (stereo unspecified) yielded an EC50 of 0.427 nM.
CN(CCOc1ccc(CC(Nc2ccc(Cl)cc2C(=O)c2ccccc2)C(=O)O)cc1)c1nc2ccccc2o1 (stereo unspecified) showed an EC50 of 178 nM.
Work on Cc1oc(-c2ccccc2)nc1CCOc1ccc(CC(Nc2ccccc2C(=O)OC(C)C)C(=O)O)cc1 (stereo unspecified) yielded an EC50 of 3.2 nM.
With Cc1oc(-c2ccccc2)nc1CCOc1ccc(CC(Nc2ccccc2C(=O)N(C)C)C(=O)O)cc1 (stereo unspecified) the EC50 was greater than 1000 nM.
Compound Cc1oc(-c2ccccc2)nc1CCOc1ccc(CC(Nc2ccccc2C(=O)c2ccncc2)C(=O)O)cc1 (stereo unspecified) has an EC50 of 107 nM.
With CN(CCOc1ccc(CC(Nc2ccncc2C(=O)c2ccccc2)C(=O)O)cc1)c1nc2ccccc2o1 (stereo unspecified) the EC50 was 724 nM.
For CCCOC(=O)c1ccccc1NC(Cc1ccc(OCCc2nc(-c3ccccc3)oc2C)cc1)C(=O)O (stereo unspecified), the EC50 was 13 nM.
In the case of CN(CCOc1ccc(CC(Nc2ccccc2C(=O)c2cccc3ccccc23)C(=O)O)cc1)c1nc2ccccc2o1 (stereo unspecified), the EC50 is reported as 2.7 nM.
Compound Cc1oc(-c2ccccc2)nc1CCOc1ccc(C[C@@H](Nc2ccccc2C(=O)C2CCCCC2)C(=O)O)cc1 has an EC50 of 372 nM.
CN(CCOc1ccc(CC(Nc2sccc2C(=O)c2ccccc2)C(=O)O)cc1)c1nc2ccccc2o1 (stereo unspecified) gave an EC50 of 95 nM.
Cc1oc(-c2ccccc2)nc1CCOc1ccc(CC(Nc2ccccc2C(=O)O)C(=O)O)cc1 (stereo unspecified) showed an EC50 greater than 10000 nM.
In the case of CN(CCOc1ccc(C[C@H](Nc2ccccc2C(=O)C2CCCCC2)C(=O)O)cc1)c1nc2ccccc2o1, the EC50 is reported as 8.5 nM.
In the case of Cc1oc(-c2ccccc2)nc1CCOc1ccc(CC(Nc2ccccc2C(=O)c2cccc(CO)c2)C(=O)O)cc1 (stereo unspecified), the EC50 is reported as 759 nM.
For Cc1oc(-c2ccccc2)nc1CCOc1ccc(CC(Nc2ccccc2C(=O)c2cccc(N)c2)C(=O)O)cc1 (stereo unspecified), the EC50 was 132 nM.
Compound COc1ccccc1C(=O)c1ccccc1NC(Cc1ccc(OCCN(C)c2nc3ccccc3o2)cc1)C(=O)O (stereo unspecified) has an EC50 of 501 nM.
With CN(CCOc1ccc(CC(Nc2ccccc2C(=O)c2ccccc2)C(=O)O)cc1)c1nc2ccccc2o1 (stereo unspecified) the EC50 was 4.4 nM.
In the case of CN(CCOc1ccc(CC(Nc2ccccc2C(=O)C2CCCCCC2)C(=O)O)cc1)c1nc2ccccc2o1 (stereo unspecified), the EC50 is reported as 66 nM.
Cc1oc(-c2ccccc2)nc1CCOc1ccc(CC(Nc2ccccc2C(=O)c2cccnc2)C(=O)O)cc1 (stereo unspecified) showed an EC50 of 17 nM.
In the case of CN(CCOc1ccc(CC(Nc2ccccc2C(=O)c2cccc(OCc3ccccc3)c2)C(=O)O)cc1)c1nc2ccccc2o1 (stereo unspecified), the EC50 is reported as 891 nM.
Cc1cccc(C(=O)c2ccccc2NC(Cc2ccc(OCCN(C)c3nc4ccccc4o3)cc2)C(=O)O)c1 (stereo unspecified) showed an EC50 of 14 nM.
Compound CNC(=O)c1ccccc1NC(Cc1ccc(OCCc2nc(-c3ccccc3)oc2C)cc1)C(=O)O (stereo unspecified) has an EC50 of 363 nM.
In the case of CSc1nc(NC(Cc2ccc(OCCN(C)c3nc4ccccc4o3)cc2)C(=O)O)c(C(=O)c2ccccc2)s1 (stereo unspecified), the EC50 is reported as less than 2510 nM.
In the case of CN(CCOc1ccc(CC(Nc2ccccc2C(=O)C2CCCC2)C(=O)O)cc1)c1nc2ccccc2o1 (stereo unspecified), the EC50 is reported as 24 nM.
COc1cccc(C(=O)c2ccccc2NC(Cc2ccc(OCCN(C)c3nc4ccccc4o3)cc2)C(=O)O)c1 (stereo unspecified) showed an EC50 of 155 nM.
Cc1oc(-c2ccccc2)nc1CCOc1ccc(CC(Nc2ccccc2C(=O)c2ccc(CN(C)C)cc2)C(=O)O)cc1 (stereo unspecified) showed an EC50 of 977 nM.
With COc1ccc(C(=O)c2ccccc2NC(Cc2ccc(OCCN(C)c3nc4ccccc4o3)cc2)C(=O)O)cc1 (stereo unspecified) the EC50 was 95 nM.
For Cc1ccc(C(=O)c2ccccc2NC(Cc2ccc(OCCN(C)c3nc4ccccc4o3)cc2)C(=O)O)cc1 (stereo unspecified), the EC50 was 12 nM.
Compound CN(CCOc1ccc(CC(Nc2ccccc2C(=O)c2ccc(C(F)(F)F)cc2)C(=O)O)cc1)c1nc2ccccc2o1 (stereo unspecified) has an EC50 of 69 nM.
Work on Cc1ccc(NC(Cc2ccc(OCCN(C)c3nc4ccccc4o3)cc2)C(=O)O)c(C(=O)c2ccccc2)c1 (stereo unspecified) yielded an EC50 of 63 nM.
CN(CCOc1ccc(CC(Nc2ccccc2C(=O)c2ccc(OCc3ccccc3)cc2)C(=O)O)cc1)c1nc2ccccc2o1 (stereo unspecified) showed an EC50 of 676 nM.
Cc1oc(-c2ccccc2)nc1CCOc1ccc(CC(Nc2ccccc2C(=O)c2cccc(C(=O)O)c2)C(=O)O)cc1 (stereo unspecified) gave an EC50 of 1580 nM.
In the case of CN(CCOc1ccc(CC(Nc2ccccc2C(=O)c2ccsc2)C(=O)O)cc1)c1nc2ccccc2o1 (stereo unspecified), the EC50 is reported as 72 nM.
Work on Cc1oc(-c2ccccc2)nc1CCOc1ccc(CC(Nc2ccccc2C(=O)c2cccc(CN(C)C)c2)C(=O)O)cc1 (stereo unspecified) yielded an EC50 of 1180 nM.
In the case of CN(CCOc1ccc(CC(Nc2ccccc2C(=O)c2ccccc2C(F)(F)F)C(=O)O)cc1)c1nc2ccccc2o1 (stereo unspecified), the EC50 is reported as 71 nM.
Work on CN(CCOc1ccc(CC(Nc2ccccc2C(=O)c2ccc(-c3ccccc3)cc2)C(=O)O)cc1)c1nc2ccccc2o1 (stereo unspecified) yielded an EC50 of 339 nM.
Cc1ccccc1C(=O)c1ccccc1NC(Cc1ccc(OCCN(C)c2nc3ccccc3o2)cc1)C(=O)O (stereo unspecified) showed an EC50 of 6.9 nM.
CN(CCOc1ccc(CC(Nc2cscc2C(=O)c2ccccc2)C(=O)O)cc1)c1nc2ccccc2o1 (stereo unspecified) gave an EC50 of 1.4 nM.
